Tests used:
[1] = Volume of distribution at steady state in beagle dog at 0.2 mg/kg, iv; type: ADME, organism-based, Canis lupus familiaris; set-up: dose 0.2 mg/kg, route intravenous; conditions: in vivo, read-out: Vdss
[2] = Tmax in fasted healthy human at 60 mg/kg, po; type: ADME, organism-based; set-up: dose 60 mg/kg, route oral; conditions: in vivo
Hepatitis C virus [3] = assay: Ratio of EC50 for HCV genotype 1a H77 infected in human HuH7 cells in presence of human serum to EC50 for HCV genotype 1a H77 infected in human HuH7 cells; type: functional, Hepacivirus hominis, Huh-7
[4] = Clearance in Sprague-Dawley rat at 1 mg/kg, iv; type: ADME, organism-based; set-up: dose 1 mg/kg, route intravenous; conditions: in vivo
[5] = Oral bioavailability in beagle dog at 0.5 mg/kg; type: ADME, organism-based, Canis lupus familiaris; conditions: in vivo
[6] = Half life in Sprague-Dawley rat at 1 mg/kg, iv; type: ADME, organism-based; set-up: dose 1 mg/kg, route intravenous; conditions: in vivo
[7] = Ratio of EC50 for HCV genotype 1a H77 infected in human HuH7 cells in presence of 10% BSA to plasma concentration in fasted healthy human at 100 mg, po at 24 hrs
Hepatitis C virus [8] = assay: Antiviral activity against HCV genotype 1a H77 infected in human HuH7 cells assessed as inhibition of viral RNA replication after 3 days by renilla luciferase reporter gene assay in presence of human serum; type: functional, organism-based, Hepacivirus hominis; conditions: genotype 1a H77, Huh-7, 72 h
[9] = Cmax in fasted healthy human at 3 mg/kg, po; type: ADME, organism-based; set-up: dose 3 mg/kg, route oral; conditions: in vivo
[10] = Half life in cynomolgus monkey at 0.5 mg/kg, iv; type: ADME, organism-based, Macaca fascicularis; set-up: dose 0.5 mg/kg, route intravenous; conditions: in vivo
[11] = Cmax in fasted healthy human at 30 mg/kg, po; type: ADME, organism-based; set-up: dose 30 mg/kg, route oral; conditions: in vivo
Canis familiaris = species on record: Canis familiaris; assay: Toxicity in beagle dog assessed as adverse effects by 14 day toxicology study; type: organism-based, Canis lupus familiaris; conditions: in vivo, 336 h
[12] = Tmax in fasted healthy human at 100 mg/kg, po; type: ADME, organism-based; set-up: dose 100 mg/kg, route oral; conditions: in vivo
[13] = Half life in fasted healthy human at 30 mg/kg, po; type: ADME, organism-based; set-up: dose 30 mg/kg, route oral; conditions: in vivo
[14] = Half life in fasted healthy human at 3 mg/kg, po; type: ADME, organism-based; set-up: dose 3 mg/kg, route oral; conditions: in vivo
Rattus norvegicus = species on record: Rattus norvegicus; assay: Toxicity in Sprague-Dawley rat assessed as adverse effects by 14 day toxicology study; type: organism-based; conditions: in vivo, 336 h
[15] = AUClast in fasted healthy human at 30 mg/kg, po; type: ADME, organism-based; set-up: time 0 - last, dose 30 mg/kg, route oral; conditions: plasma
Hepatitis C virus [16] = assay: Antiviral activity against HCV genotype 1b Con1 infected in human HuH7 cells assessed as inhibition of viral RNA replication after 3 days by renilla luciferase reporter gene assay in presence of 10% BSA; type: functional, organism-based, Hepacivirus hominis; conditions: isolate Con1, Huh-7, 72 h
[17] = Metabolic stability in Sprague-Dawley rat liver microsomes assessed as hepatic extraction at 3 uM after 60 mins by LC/MS/MS analysis; type: ADME; conditions: read-out: ERH
Hepatitis C virus [18] = assay: Antiviral activity against HCV genotype 1b Con1 infected in human HuH7 cells assessed as inhibition of viral RNA replication after 3 days by renilla luciferase reporter gene assay in presence of human serum; type: functional, organism-based, Hepacivirus hominis; conditions: isolate Con1, Huh-7, 72 h
[19] = Half life in beagle dog at 0.2 mg/kg, iv; type: ADME, organism-based, Canis lupus familiaris; set-up: dose 0.2 mg/kg, route intravenous; conditions: in vivo
Hepatitis C virus [20] = assay: Antiviral activity against HCV genotype 1a H77 infected in human HuH7 cells assessed as inhibition of viral RNA replication after 3 days by renilla luciferase reporter gene assay in presence of 10% BSA; type: functional, organism-based, Hepacivirus hominis; conditions: genotype 1a H77, Huh-7, 72 h
[21] = Cmax in fasted healthy human at 100 mg/kg, po; type: ADME, organism-based; set-up: dose 100 mg/kg, route oral; conditions: in vivo
[22] = Half life in fasted healthy human at 10 mg/kg, po; type: ADME, organism-based; set-up: dose 10 mg/kg, route oral; conditions: in vivo
[23] = Mean residence time in Sprague-Dawley rat at 1 mg/kg, iv; type: ADME, organism-based; set-up: dose 1 mg/kg, route intravenous; conditions: in vivo
[24] = Plasma concentration in fasted healthy human at 60 mg/kg, po at 24 hrs; type: ADME, organism-based; set-up: dose 60 mg/kg, route oral
[25] = Cmax in fasted healthy human at 10 mg/kg, po; type: ADME, organism-based; set-up: dose 10 mg/kg, route oral; conditions: in vivo
[26] = Metabolic stability in cynomolgus monkey liver microsomes assessed as hepatic extraction at 3 uM after 60 mins by LC/MS/MS analysis; type: ADME, Macaca fascicularis, Microsome; conditions: read-out: ERH
[27] = AUC (infinity) in fasted healthy human at 30 mg/kg, po; type: ADME, organism-based; set-up: time infinity, dose 30 mg/kg, route oral; conditions: plasma
[28] = AUClast in fasted healthy human at 100 mg/kg, po; type: ADME, organism-based; set-up: time 0 - last, dose 100 mg/kg, route oral; conditions: plasma
Hepatitis C virus [29] = assay: Ratio of EC50 for HCV genotype 1b Con1 infected in human HuH7 cells in presence of human serum to EC50 for HCV genotype 1b Con1 infected in human HuH7 cells; type: functional, Hepacivirus hominis, isolate Con1, Huh-7
[30] = Clearance in cynomolgus monkey at 0.5 mg/kg, iv; type: ADME, organism-based, Macaca fascicularis; set-up: dose 0.5 mg/kg, route intravenous; conditions: in vivo

COC(=O)N[C@H](C(=O)N1CC2(CC2)C[C@H]1c1nc(-c2ccc3c(c2)C(F)(F)c2cc(-c4ccc5[nH]c([C@@H]6[C@H]7CC[C@H](C7)N6C(=O)[C@@H](NC(=O)OC)C(C)C)nc5c4)ccc2-3)c[nH]1)C(C)C
Vd [1]: 1.19 L/kg
Tmax [2]: 5.5 h
Ratio EC50 (Hepatitis C virus [3]): 6.7
clearance [4]: 7.17 mL/min/kg
bioavailability [5]: 53%
half-life [6]: 4.67 h
Ratio [7]: 470
EC50 (Hepatitis C virus [8]): 0.21 nM
Cmax [9]: 6.75 nM
half-life [10]: 10.3 h
Cmax [11]: 82.2 nM
Activity (Canis familiaris): Non-toxic
Tmax [12]: 5.5 h
half-life [13]: 37.2 h
half-life [14]: 45.2 h
Activity (Rattus norvegicus): Non-toxic
AUC(0-t) [15]: 2.24 µM·h
EC50 (Hepatitis C virus [16]): 0.027 nM
hepatic extraction ratio at 1 h, 3 µM [17]: < 0.092
EC50 (Hepatitis C virus [18]): 0.027 nM
half-life [19]: 7.41 h
EC50 (Hepatitis C virus [20]): 0.21 nM
Cmax [21]: 242 nM
half-life [22]: 42.4 h
MRT [23]: 6.19 h
concentration at 24 h [24]: 56.4 nM
Cmax [25]: 21.3 nM
hepatic extraction ratio at 1 h, 3 µM [26]: < 0.127
AUC(0-inf) [27]: 2.72 µM·h
AUC(0-t) [28]: 7.05 µM·h
Ratio EC50 (Hepatitis C virus [29]): 6.7
clearance [30]: 2.83 mL/min/kg

— ChEMBL document CHEMBL3120075 (J Med Chem, 2014)
